Data taken from patent US6903079B2, “Nucleoside compounds and compositions thereof” (Inotek Pharmaceuticals Corporation, priority 2000, dated 2005).
Where two headings read alike, the source gives them in different places.

Columns and labels:
[1] = target: PARS (Mus musculus, UniProt P11103); assay: PARS inhibition by nucleoside derivatives (in vitro inflammation models); format: cell-based
From the text: For example, conjugates of adenosine derivatives were investigated for PARS inhibition.

[2] = target: T1, poly (ADP-ribose) synthetase (PARS) (Mus musculus, UniProt P11103); assay: Peroxynitrite-induced PARS activation and cell injury in J774 macrophages; format: cell-based; conditions: J774 macrophages exposed to peroxynitrite
T1 construct: endogenous in cells; host or cells: J774 macrophages
T1 sequence (P11103 whole entry): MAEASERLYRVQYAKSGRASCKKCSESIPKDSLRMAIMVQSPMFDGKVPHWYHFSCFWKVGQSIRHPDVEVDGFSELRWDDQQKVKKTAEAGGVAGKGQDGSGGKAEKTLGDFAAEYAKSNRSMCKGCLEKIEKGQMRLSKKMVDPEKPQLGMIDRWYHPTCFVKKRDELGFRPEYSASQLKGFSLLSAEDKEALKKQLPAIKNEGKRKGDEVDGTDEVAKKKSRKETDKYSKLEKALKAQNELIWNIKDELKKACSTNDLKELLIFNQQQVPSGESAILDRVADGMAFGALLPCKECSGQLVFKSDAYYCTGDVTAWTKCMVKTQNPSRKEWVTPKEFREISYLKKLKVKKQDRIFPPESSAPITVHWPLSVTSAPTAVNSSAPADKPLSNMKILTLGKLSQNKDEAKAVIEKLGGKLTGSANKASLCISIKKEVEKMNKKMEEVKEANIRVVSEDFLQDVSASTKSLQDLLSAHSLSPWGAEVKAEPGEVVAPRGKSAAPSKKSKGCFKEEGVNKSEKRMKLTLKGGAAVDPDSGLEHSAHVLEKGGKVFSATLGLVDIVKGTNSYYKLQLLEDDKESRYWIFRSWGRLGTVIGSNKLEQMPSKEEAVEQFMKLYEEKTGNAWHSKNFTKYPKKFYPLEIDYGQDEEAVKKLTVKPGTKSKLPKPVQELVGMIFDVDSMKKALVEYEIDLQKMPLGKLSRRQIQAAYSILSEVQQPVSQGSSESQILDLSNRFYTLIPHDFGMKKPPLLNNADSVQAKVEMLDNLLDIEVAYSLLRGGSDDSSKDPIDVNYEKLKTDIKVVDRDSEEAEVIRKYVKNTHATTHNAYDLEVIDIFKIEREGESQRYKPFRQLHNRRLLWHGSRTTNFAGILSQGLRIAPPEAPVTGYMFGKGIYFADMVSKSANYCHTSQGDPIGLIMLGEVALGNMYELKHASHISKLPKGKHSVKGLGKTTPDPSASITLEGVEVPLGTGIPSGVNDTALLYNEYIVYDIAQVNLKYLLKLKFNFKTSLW
From the text: In in vitro studies, J774 macrophages were exposed to peroxynitrite to induce activation of PARS and related cell injury.

[3] = system: mouse model of gut ischemia-reperfusion; assay: Gut ischemia-reperfusion by ligation and release of superior mesenteric artery; FD4 gut permeability in everted gut sacks; conditions: 10 mg/kg i.v. 10 min prior to reperfusion
Description: In order to examine the efficacy of the compounds of the invention in ischemia-reperfusion conditions, the effect of selected compounds in a local model of reperfusion injury was examined. […] The artery was occluded for 45 min, followed by reperfusion for 1 h. Following the end of the reperfusion, gut permeability was measured with the fluorescein isothiocyanate-conjugated dextran (FD4) method in everted gut sacks.
The artery was occluded for 45 min, followed by reperfusion for 1 h. Following the end of the reperfusion, gut permeability was measured with the FD4 method in everted gut sacks.

[4] = system: rat model of middle cerebral artery occlusion/reperfusion; assay: Middle cerebral artery occlusion/reperfusion; format: in vivo; conditions: 2 h occlusion, 24 h reperfusion, 10 mg/kg i.v. then 10 mg/kg/h, tetrazolium staining
Description: Occlusion lasted for 2 hours, followed by reperfusion for 24 hours. Infarct size was quantified with tetrazolium staining and survival and neurological scores were monitored. The compounds were administered at 10 mg/kg i.v. 5 min before the start of reperfusion in one group, and continued at a rate of 10 mg/kg/h infusion during the reperfusion. Vehicle-treated animals (control) developed a >50% mortality over 24 hours, whereas <10% of the animals died in the drug treated groups. The compounds tested reduced the size of brain infarction by 64±2 and 57±3%, respectively.

[5] = system: endotoxin-induced lethality in a mouse model; assay: Endotoxin-induced lethality (systemic inflammation); format: in vivo
Description: The compounds were given as oral gavage at 10 mg/kg, twice a day.

[6] = 10 μM, values marked *, asterisk not explained, read-out: Inhibition at 10 μM (values marked *)
[7] = 10 μM, Table 3 parent/reference compounds, read-out: INHIBITION at 10 μM

PARS, sequence (P11103 whole entry): as above

Row | Compound | inhibition at 10 µM ([1]; read-out: Inhibition at 10 μM) [%] | inhibition at 100 µM ([1]; read-out: Inhibition at 100 μM) [%] | also measured
1 | CN(CC(=O)Nc1cccc2c1CNC2=O)C(=O)C1OC(n2cnc3c(N)ncnc32)C(O)C1O (stereo not shown) [Compound 123] | – | – | inhibition at 10 µM [1, 6]: 74%
2 | Nc1ncnc2c1ncn2C1OC(CNC(=O)C(F)(F)C(F)(F)C(F)(F)C(=O)Nc2cccc3c2CNC3=O)C(O)C1O (stereo not shown) [Compound 113] | 55 | 85 | –
3 | Nc1ncnc2c1ncn2C1OC(CNC(=O)CCC(=O)Nc2cccc3c2CNC3=O)C(O)C1O (stereo not shown) [Compound 102] | – | – | inhibition at 10 µM ([1]; read-out: Inhibition at 10 μM, 10 μM): 100%; inhibition at 100 µM ([1]; read-out: Inhibition at 100 μM, 100 μM): 100%
4 | 3-N-chloroacetyl-2,3-dihydro-1H-isoindol-1-one [Compound 5] | – | – | % Inhibition (10 μM) [2]: 29%
5 | O=C1NCc2c(O)cccc21 [Compound 27, 4-hydroxy-2,3-dihydro-1H-isoindol-1-one] | – | – | inhibition at 10 µM [2]: 60%
6 | O=C1NCc2ccccc21 [Compound 1] | – | – | inhibition at 10 µM [1, 7]: 33%; inhibition at 10 µM [2]: 33%
7 | O=C(O)CCC(=O)Nc1cccc2c1CNC2=O [Compound 55, 4-N-(succinyl)-2,3-dihydro-1H-isoindol-1-one] | – | – | % Inhibition (10 μM) [2]: 25%
8 | Nc1ncnc2c1ncn2C1OC(CNC(=O)CCCCCCC(=O)Nc2cccc3c2CNC3=O)C(O)C1O (stereo not shown) [Compound 106] | – | – | inhibition at 10 µM ([1]; 10 μM): 98; inhibition at 100 µM ([1]; 100 μM): 100
9 | O=C(CCC(=O)Nc1cccc2c1CNC2=O)NCC1OC(n2cnc3c(NCC4CC4)ncnc32)C(O)C1O (stereo not shown) [Compound 122] | – | – | inhibition at 10 µM [1, 6]: 25%
10 | Nc1ncnc2c1ncn2C1OC(C(=O)NCCC(=O)Nc2cccc3c2CNC3=O)C(O)C1O (stereo not shown) [Compound 129] | – | – | inhibition at 10 µM [1, 6]: 77.4%
11 | O=C1NCc2c(F)cccc21 [Compound 2] | – | – | inhibition at 10 µM [2]: 27%
12 | Nc1ncnc2c1ncn2[C@@H]1O[C@H](CO)[C@@H](O)[C@H]1O [G, adenosine, reference compound] | – | – | PARS inhibitory activity (in words) [1]: only modest activity; inhibition at 10 µM [1, 7]: 40%
13 | CN1CCN(CCCC(=O)Nc2cccc3c2CNC3=O)CC1 [Compound 10, 4-N-(N-methylpiperazine)butylamido-2,3-dihydro-1H-isoindol-1-one] | – | – | % Inhibition (10 μM) [2]: 35%
14 | Nc1ncnc2c1ncn2C1OC(CNC(=O)CCCCCCCCC(=O)Nc2cccc3c2CNC3=O)C(O)C1O (stereo not shown) [Compound 108] | 34 | 74 | –
15 | O=C1NCc2c1cccc2[N+](=O)[O-] [Compound 3, 4-nitro-2,3-dihydro-1H-isoindol-1-one] | – | – | inhibition at 10 µM [2]: 12%
16 | CN(CCCCCCCC(=O)Nc1cccc2c1CNC2=O)C(=O)C1OC(n2cnc3c(N)ncnc32)C(O)C1O (stereo not shown) [Compound 125] | – | – | inhibition at 10 µM [1, 6]: 70%
17 | CCN(CC(=O)Nc1cccc2c1CNC2=O)C(=O)C1OC(n2cnc3c(N)ncnc32)C(O)C1O (stereo not shown) [Compound 126] | – | – | inhibition at 10 µM [1, 6]: 67.1%
18 | Nc1ncnc2c1ncn2C1OC(CNC(=O)CCCCCCCC(=O)Nc2cccc3c2CNC3=O)C(O)C1O (stereo not shown) [Compound 107] | 62 | 100 | –
19 | COc1cccc2c1CNC2=O [Compound 28] | – | – | inhibition at 10 µM [2]: 64%

Row | Compound | inhibition at 10 µM ([1]; read-out: Inhibition at 10 μM) [%] | inhibition at 100 µM ([1]; read-out: Inhibition at 100 μM) [%] | also measured
20 | Nc1ncnc2c1ncn2C1OC(CNC(=O)C(O)C(O)C(=O)Nc2cccc3c2CNC3=O)C(O)C1O (stereo not shown) [Compound 111] | 75 | 100 | –
21 | Nc1ncnc2c1ncn2C1OC(CNC(=O)CCCCCCC(=O)Nc2cccc3c2CNC3=O)C(O)C1O (stereo not shown) [Compound 131] | – | – | inhibition at 10 µM ([1]; 10 μM): 36; inhibition at 100 µM ([1]; 100 μM): 68
22 | CCN(CCC(=O)Nc1cccc2c1CNC2=O)C(=O)C1OC(n2cnc3c(N)ncnc32)C(O)C1O (stereo not shown) [Compound 127] | – | – | inhibition at 10 µM [1, 6]: 89%
23 | Nc1ncnc2c1ncn2C1OC(CNC(=O)CCCCCC(=O)Nc2cccc3c2CNC3=O)C(O)C1O (stereo not shown) [Compound 105] | 66 | 100 | –
24 | CN(CCC(=O)Nc1cccc2c1CNC2=O)C(=O)C1OC(n2cnc3c(N)ncnc32)C(O)C1O (stereo not shown) [Compound 124] | – | – | reduction of the increase in the permeability of the gut [3]: 72%; reduction of the size of brain infarction [4]: 64±2%; protection against endotoxin-induced lethality [5]: protected against endotoxin-induced lethality
25 | Nc1ncnc2c1ncn2C1OC(CNC(=O)CC(=O)Nc2cccc3c2CNC3=O)C(O)C1O (stereo not shown) [Compound 101] | 64 | 100 | –
26 | O=C(O)CCn1ccc2c1CCCC2=O [C, reference compound] | – | – | inhibition at 10 µM [1, 7]: 4%
27 | Nc1ncnc2c1ncn2C1OC(C(=O)NCC(=O)Nc2cccc3c2CNC3=O)C(O)C1O (stereo not shown) [Compound 128] | – | – | inhibition at 10 µM [1, 6]: 83.2%
28 | N=C(N)NCCC[C@H](N)C(=O)Nc1cccc2c1CNC2=O [Compound 42, 4-N-(arginyl)-2 ,3-dihydro-1H-isoindol-1-one] | – | – | % Inhibition (10 μM) [2]: 72%
29 | O=C(CCC(=O)N1CCc2ccccc2C1)Nc1cccc2c1CNC2=O [Compound 36, 4-N-(tetrahydroisoquinolinosuccinamido)-2,3-dihydro-1H-isoindol-1-one] | – | – | % Inhibition (10 μM) [2]: 64%
30 | O=C(CN1CCNCC1)Nc1cccc2c1CNC2=O [Compound 73] | – | – | inhibition at 10 µM [2]: 61%
31 | Nc1ncnc2c1ncn2C1OC(CNC(=O)COCC(=O)Nc2cccc3c2CNC3=O)C(O)C1O (stereo not shown) [Compound 114] | 56 | 100 | –
32 | Nc1cccc2c1CNC2=O [Compound 4, 4-amino-2,3-dihydro-1H-isoindol-1-one] | – | – | inhibition at 10 µM [1, 7]: 27%; inhibition at 10 µM [2]: 27%
33 | CC1(C)OC2C(CNC(=O)CCC(=O)Nc3cccc4c3CNC4=O)OC(n3cnc4c(N)ncnc43)C2O1 (stereo not shown) [Compound 109] | 29 | 60 | –
34 | CN1CCN(CCC(=O)Nc2cccc3c2CNC3=O)CC1 [Compound 9, 4-N-(N-methylpiperazine)propylamido-2,3-dihydro-1H-isoindol-1-one] | – | – | % Inhibition (10 μM) [2]: 59%
35 | NC(=O)c1ccccc1-c1cccc(N)c1 [F, reference compound] | – | – | inhibition at 10 µM [1, 7]: 37%
36 | CC1(C)OC2C(CNC(=O)CCCC(=O)Nc3cccc4c3CNC4=O)OC(n3cnc4c(N)ncnc43)C2O1 (stereo not shown) [Compound 110] | 29 | 64 | –
37 | Nc1ncnc2c1ncn2[C@@H]1OC(CNC(=O)c2c(F)ccc(F)c2C(=O)Nc2cccc3c2CNC3=O)[C@@H](O)[C@H]1O (stereo partly shown) [Compound 115] | 0 | 34 | –

The next lines start with results.

Row | inhibition at 10 µM ([1]; read-out: Inhibition at 10 μM) [%] | inhibition at 100 µM ([1]; read-out: Inhibition at 100 μM) [%] | Compound | also measured
38 | 32 | 42 | Nc1ncnc2c1ncn2C1OC(CNC(=O)CCn2ccc3c2CCCC3=O)C(O)C1O (stereo not shown) [Compound 136] | –
39 | – | 27 | NCC1OC(n2cnc3c(N)ncnc32)C(O)C1O (stereo not shown) [Compound 139] | –
40 | 15 | 25 | CC1(C)OC2C(CNC(=O)CCn3ccc4c3CCCC4=O)OC(n3cnc4c(N)ncnc43)C2O1 (stereo not shown) [Compound 135] | –
41 | 31.3 | 51.4 | Nc1ncnc2c1ncn2[C@@H]1OC(CNC(=O)/C=C/c2ccc(C(=O)Nc3cccc4c3CNC4=O)cc2)[C@@H](O)[C@H]1O (stereo partly shown) [Compound 118] | –
42 | 21 | 40 | CC1(C)OC2C(CN3C(=O)c4ccccc4C3=O)OC(n3cnc4c(N)ncnc43)C2O1 (stereo not shown) [Compound 137] | –
43 | – | 81 | Nc1ncnc2c1ncn2C1OC(CNC(=O)CC(O)CC(=O)Nc2cccc3c2CNC3=O)C(O)C1O (stereo not shown) [Compound 121] | inhibition at 10 µM [1, 6]: 13.3%
44 | 14.2 | – | Nc1ncnc2c1ncn2C1OC(C(=O)O)C(O)C1O (stereo not shown) [Compound 140] | –
45 | 62 | 100 | Nc1ncnc2c1ncn2C1OC(CNC(=O)CNC(=O)Nc2cccc3c2CNC3=O)C(O)C1O (stereo not shown) [Compound 120] | –
46 | 25 | 58 | Nc1ncnc2c1ncn2C1OC(CNCC(=O)Nc2cccc3c2CNC3=O)C(O)C1O (stereo not shown) [Compound 119] | –
47 | 52 | 73 | NC(=O)c1cccc(NC(=O)CCC(=O)NCC2OC(n3cnc4c(N)ncnc43)C(O)C2O)c1 (stereo not shown) [Compound 134] | –
48 | 61 | 83 | O=C(CCC(=O)Nc1cccc2c1CNC2=O)NCC1OC(n2ccc(O)nc2=O)C(O)C1O (stereo not shown) [Compound 132] | –
49 | 5 | 69 | NC(=O)c1ccccc1-c1cccc(NC(=O)CCC(=O)NCC2OC(n3cnc4c(N)ncnc43)C(O)C2O)c1 (stereo not shown) [Compound 133] | –
50 | 0 | 55 | Nc1ncnc2c1ncn2[C@@H]1OC(CNC(=O)c2cc(Cl)c(Cl)cc2C(=O)Nc2cccc3c2CNC3=O)[C@@H](O)[C@H]1O (stereo partly shown) [Compound 116] | –
